Experimental data as given in patent US8648116B2, “Derivatives of N-(arylamino) sulfonamides including polymorphs as inhibitors of MEK as well as compositions, methods of use and methods for preparing the same” (Ardea Biosciences, Inc., priority 2005, dated 2014).
Where two headings read alike, the source gives them in different places.

Experiments:
pERK in brain = test: MEK inhibition (pERK, Western blot) against plasma concentration, brain; assay type: in vivo, nu/nu mice
Protocol: Human tumors were implanted in nu/nu mice. Compound A was administered orally for 14 days once tumors were approximately 100 mm^3 in size. Tumor growth inhibition (TGI) was determined after 14 days of treatment as the reduction in the size of tumors in treated groups versus vehicle controls. The time to endpoint (TTE) was calculated as the time for the tumor to reach the specified endpoint volume or the last day of the study, whichever came first. Treatment outcome was determined from percent tumor growth delay (% TGD), defined as the percent increase in median TTE of treated versus vehicle-treated control mice. Animals were also monitored for regression responses. Levels of pERK in tumors and brain were determined by Western blots and correlated with plasma levels of Compound A for the pharmacodynamic/pharmacokinetic study. A number of tumor models were evaluated with different doses and dosing regimens. […] The effect of different dosing regimens was evaluated in A375 xenografts.
Female nu/nu mice implanted with Colo205 tumor cells were given a single dose of vehicle or Compound A at 2.5, 5, 10, or 25 mg/kg. Compound levels were determined in plasma samples and pERK levels were determined in tumor and brain samples collected at 2, 6, 12, and 24 hr post-dose. […]

[1] = test system: carrageenan-induced hind paw edema; test: Carrageenan-induced paw edema (CPE); assay type: in vivo, Sprague-Dawley rats; conditions: 6, 20 & 60 mg/kg orally 2 hr before carrageenan; all dose groups
Protocol: Compound A (6, 20 & 60 mg/kg) or indomethacin (3 mg/kg) were administered orally 2 hr prior to injection of 1% suspension of carrageenan into the right hind foot pad of male Sprague-Dawley rats (N-6 per treatment group). The hind paw edema was measured 3 hr later by assessing paw volume by plethysmography. Reduction of hind paw edema by 30% or greater indicates significant acute anti-inflammatory activity. Indomethacin (Indo) was used as a positive control drug.

[2] = Concentration-time profiles after a single dose of capsules; design: species or system human cancer patients; conditions: human, in vivo, oral, capsules of example 95A, Day 1; for AUC(0-t): read-out: AUC0-12hr
Protocol: Human cancer patients were administered a single dose of the 1 mg or 10 mg capsule composition described above in example 95A. For a 2 mg dose, patients were given 2×1 mg capsules; for a 4 mg dose, patients were given 4×1 mg capsules; for a 6 mg dose, patients were given 6×1 mg capsules; for a 10 mg dose, patients were given 1×10 mg capsule; for a 20 mg dose, patients were given 2×10 mg capsules.
The concentration-time profiles were monitored and are shown in FIG. 4 and in the table below: […]

**Q.** Which “pERK formation in brain” value (pERK in brain; Colo205 xenograft mice, pharmacodynamic/pharmacokinetic study) does the source give for `COc1cc(F)c(F)c(Nc2ccc(I)cc2F)c1NS(=O)(=O)C1(C[C@H](O)CO)CC1` [Compound A] here?
**A.** minimal inhibition

**Q.** And the EC50 (pERK in brain; Mus musculus, plasma concentration, Colo205-bearing nu/nu mice, single dose 2.5-25 mg/kg)?
**A.** > 5 µM

**Q.** And the “hind paw edema (paw volume)” value [1]?
**A.** significant anti-inflammatory activity

**Q.** And the Cmax ([2]; 2 mg, 2 mg dose)?
**A.** 0.111 ng/mL

**Q.** What about the Tmax ([2]; 2 mg, 2 mg dose) of the same molecule?
**A.** 2 h

**Q.** What about the Cmax ([2]; 4 mg, 4 mg dose) of the same molecule?
**A.** 0.292 ng/mL

**Q.** And the AUC(0-t) ([2]; 2 mg dose)?
**A.** 0.7 ng·h/mL

**Q.** What about the AUC(0-t) ([2]; 4 mg dose) of the same molecule?
**A.** 2.26 ng·h/mL
